Measured values from ChEMBL document CHEMBL1146265, “Synthesis and structure-activity studies of antofine analogues as potential anticancer agents” (Bioorg Med Chem Lett, 2007).

Experiments:
Format in all cases: functional, cell-based
HCT-116 = assay: Cytotoxicity against human HCT116 cells by SRB assay
HT-1080 = assay: Cytotoxicity against human HT1080 cells by SRB assay
A549 = assay: Cytotoxicity against human A549 cells by SRB assay

Row | Structure (SMILES) | IC50 (HCT-116) | IC50 (HT-1080) | IC50 (A549)
1 | COc1cc2c3c(c4ccc(OC(C)C)cc4c2cc1OC)CN1CCCC1C3 (stereo not given) | 0.0192 µM | 0.0236 µM | 0.0405 µM
2 | COc1ccc2c3c(c4cc(O)c(OC)cc4c2c1)CC1CCCN1C3 (stereo not given) | 0.0683 µM | 0.0726 µM | > 0.1 µM
3 | COc1ccc2c3c(c4cc5c(cc4c2c1)OCO5)CC1CCCN1C3 (stereo not given) | 0.364 µM | 0.453 µM | 0.747 µM
4 | COc1cc2c3c(c4ccc(O)cc4c2cc1OC)CN1CCCC1C3 (stereo not given) | 0.0011 µM | 0.0011 µM | 0.0014 µM
5 | COc1cc2c3c(c4ccccc4c2cc1OC)CN1CCCC1C3 (stereo not given) | 0.0493 µM | 0.0591 µM | > 0.1 µM
6 | COc1ccc2c3c(c4cc(OC)c(OC(C)C)cc4c2c1)CC1CCCN1C3 (stereo not given) | 0.0247 µM | 0.0374 µM | 0.0539 µM
7 | COc1ccc2c3c(c4cc(OC)c(O)cc4c2c1)CC1CCCN1C3 (stereo not given) | 0.0214 µM | 0.0198 µM | 0.0498 µM
8 | COc1ccc2c3c(c4cc(OC(C)C)c(OC)cc4c2c1)CC1CCCN1C3 (stereo not given) | 0.783 µM | > 1 µM | > 1 µM
9 | COc1ccc2c3c(c4cc(OC)c(OC)cc4c2c1)CC1CCCN1C3 (stereo not drawn) [(+/-)-ANTOFINE] | 0.0294 µM | 0.0275 µM | 0.0251 µM
10 | COc1ccc2c3c(c4cc(OC)c(OC)cc4c2c1)C[C@H]1CCCN1C3 [(-)-ANTOFINE] | 0.0099 µM | 0.0096 µM | 0.0104 µM
